Data reported in US12043590B2, “Co-crystals comprising levothyroxine and a dicarboxylic acid” (Sandoz AG, priority 2018, dated 2024).

Assays:
[1] = Thermal stability (DSC); type: physicochemical; conditions: for Tpeak of desolvation event (first endothermic peak maximum, DSC): DSC 20 to 235° C., dry nitrogen purge, event = loss of EtOH, H2O or lactic acid; for Tpeak of desolvation event (first endothermic peak maximum, DSC) / Onset temperature of decomposition peak (DSC) / Peak maximum temperature of decomposition peak (DSC): heating rate 20 K/min; for Stability against temperature stress compared to levothyroxine sodium pentahydrate (DSC conclusion): DSC analysis; for Onset temperature of decomposition peak (DSC) / Peak maximum temperature of decomposition peak (DSC): co-crystal: second endotherm, concomitant melting and decomposition, sodium pentahydrate: exotherm
Protocol: Each sample (approximately 4±0.0005 mg using a UM3 ultramicrobalance, Mettler, Greifensee, CH) was weighed into an aluminum pan (25 microlitre) and sealed with a cover, which was perforated by a needle. Dry nitrogen was used as the purge gas (purge rate: 20 mL/min). The samples were heated from 20 to 235° C. at a heating rate of 20 K/min.

[2] = Thermal stability (TGA); type: physicochemical; conditions: for Temperature range of desolvation event (TGA): TGA 20 to 235° C., 10 K/min, nitrogen purge, event = loss of EtOH, H2O or lactic acid
Protocol: Each sample (approximately 4±0.0005 mg using a UM3 ultramicrobalance, Mettler, Greifensee, CH) was weighed into an unsealed platinum sample holder (50 microlitre). The samples were heated from 20 to 235° C. at a rate of 10 K/min. Nitrogen (sample purge rate 20 mL/min and balance purge rate 40 mL/min)) was used as purge gas.

[3] = Hamad et al., Pharm Dev Technol 2015; 20(3): 314-319; cited from earlier work
[4] = Chemical stability: exposure to ambient air at 40° C. and 0% RH, followed by 1H-NMR
[5] = listed as L-tartaric acid L-lactic acid co-crystal
[6] = TGA 10 K/min, up to about 120° C.
[7] = listed as L-tartaric acid co-crystal

Compound | Tpeak of desolvation event (first endothermic peak maximum, DSC) [1] | Tpeak of desolvation event (first endothermic peak maximum, DSC) [1, 5] [°C] | Stability against temperature stress compared to levothyroxine sodium pentahydrate (DSC conclusion) [1] | Mass loss up to about 120° C. (TGA) [2, 6] | Temperature range of desolvation event (TGA) [2] | Temperature range of desolvation event (TGA) [2, 5] | Onset temperature of decomposition peak (DSC) [1] | Peak maximum temperature of decomposition peak (DSC) [1] | Mass loss up to about 120° C. (TGA), in words [2, 6] | Chemical degradation on exposure to dry conditions in the presence of molecular oxygen [3] | Chemical stability under the applied stress conditions (1H-NMR) ([4]; ambient air (oxygen about 20.9 volume %), 6 weeks, spectra at start, 3 and 6 weeks) | 1H-NMR spectrum change after 3 weeks ([4]; ambient air, 3 weeks) | 1H-NMR spectrum change after 6 weeks ([4]; ambient air, 6 weeks) | Tpeak of desolvation event (first endothermic peak maximum, DSC) [1, 7] [°C] | Temperature range of desolvation event (TGA) [2, 7]
N[C@@H](Cc1cc(I)c(Oc2cc(I)c(O)c(I)c2)c(I)c1)C(=O)O [levothyroxine L-tartaric acid L-lactic acid co-crystal] | about 162 °C | 162 | more stabe against temperature stress | about 0.5 weight-% | 150 to 170 °C | ~150-170 °C |  |  |  |  |  |  |  |  | 
N[C@@H](Cc1cc(I)c(Oc2cc(I)c(O)c(I)c2)c(I)c1)C(=O)[O-].[Na+] [levothyroxine sodium pentahydrate, Levothyroxine sodium pentahydrate, reference compound] |  |  |  |  | ~30-120 °C |  | about 202 °C | about 205 °C | significant weight loss | significant degradation | chemically unstable | additional peaks become evident | become even more intense |  | 
N[C@@H](Cc1cc(I)c(Oc2cc(I)c(O)c(I)c2)c(I)c1)C(=O)O [levothyroxine L-tartaric acid co-crystal] | about 165 °C |  | more stable against temperature stress |  | 150 to 170 °C |  | about 180 °C | about 197 °C | only a slight mass loss |  |  |  |  | 165 | ~150-170 °C
